Laboratory results taken from US20110033946A1, “DETECTION OF SHORT-CHAIN FATTY ACIDS IN BIOLOGICAL SAMPLES” (HEMAQUEST PHARMACEUTICALS, INC., priority 2009, published 2011).
“And” between values parts separate entries of the source, which are not always exact repeats. Equal values may be shown once.

Tests used:
Format in all cases: physicochemical
[1] = Freeze/thaw cycle stability in rat plasma; details: three freeze/thaw cycles at approximately −70° C.
Procedure: (§1) For the remaining validation tests, a calibration curve and triplicates QCs at the low, mid and high levels were analyzed with each sample set. The following samples were also analyzed either in conjunction with one of the precision and accuracy runs or in one of the additional validation runs: Samples from six lots of control rat plasma for specificity; Samples from six lots of control rat plasma fortified with internal standard for specificity; Two concentration levels of unextracted QC-samples in triplicate (solvent standards) were analyzed for the evaluation of the recovery of sodium 2,2-dimethylbutyrate and DMV in rat plasma; Two levels of QC samples (Low QC and High QC in triplicate) were subjected to three freeze/thaw cycles at approximately −70° C. prior to extraction to evaluate freeze/thaw stability; Two levels of QC samples (Low QC and High QC in triplicate) were placed on the bench top for approximately 17 hours prior to extraction for the evaluation of the bench top stability; Triplicate low QC samples and triplicate high QC samples were stored for one month and three months in a freezer at approximately −70° C., and then extracted and analyzed to evaluate long term stability in rat plasma; Three aliquots of a dilution QC sample diluted 10-fold.
(§2) The stability of sodium 2,2-dimethylbutyrate in rat plasma was evaluated at approximately −70° C. for three cycles using QC-Low and QC-High samples in triplicate. The freeze time was at least 12-24 hours, with a minimum thaw time of one hour. The CV % values for the QC-Low and QC-High stability samples are 13.3% and 4.6%, respectively. To calculate the RE %, the measured mean concentration was compared to the nominal concentration.

[2] = Freeze/thaw cycle stability in human plasma; details: three freeze/thaw cycles at approximately −70° C.
Procedure: (§3) The following samples were also analyzed either in conjunction with one of the precision and accuracy runs or in one of the additional validation runs. Samples from six lots of control human plasma for specificity. Samples from six lots of control human plasma fortified with internal standard for specificity. Two concentration levels of unextracted QC-samples in triplicate (solvent standards) were analyzed for the evaluation of the recovery of sodium 2,2-dimethylbutyrate and DMV in human plasma. Two levels of QC samples (Low QC and High QC in triplicate) were subjected to three freeze/thaw cycles at approximately −70° C. prior to extraction to evaluate freeze/thaw stability. Two levels of QC samples (Low QC and High QC in triplicate) were placed on the bench top for approximately 17 hours prior to extraction for the evaluation of the bench top stability. Triplicate low QC samples and triplicate high QC samples were stored for one month and three months in a freezer at approximately −70° C., and then extracted and analyzed to evaluate long term stability in human plasma. Two levels of extracted QC samples (Low QC and High QC) were re-analyzed after approximately 71 hours in the autosampler at room temperature to evaluate the extract autosampler stability. Two levels of extracted QC samples (Low QC and High QC) were re-analyzed after approximately 8 hours in the freezer at approximately −20° C. to evaluate the extract freeze stability. Three aliquots of a dilution QC sample diluted 10-fold. Triplicate dilutions of the old stock solution (stored at approximately 4° C.) and new stock solutions prepared at intervals of two weeks and one month. Statistical calculations in the report tables were calculated from unrounded concentration values taken directly from the raw data. The concentration values were rounded for display purposes.
as §2, with “in human” for “in rat”, “least 12 to 24” for “least 12-24”, “are 3.3%” for “are 13.3%”, “and 9.8%,” for “and 4.6%,”, “concentration. The RE % values for the QC-Low and QC-High stability samples are 2.3% and −5.5%, respectively.” for “concentration.”

[3] = Freeze/thaw cycle stability in dog plasma; details: three freeze/thaw cycles at approximately −70° C.
Procedure: as §1, with “control dog” for “control rat”, “for specificity.” for “for specificity; Samples from six lots of control rat plasma fortified with internal standard for specificity;”, “in dog plasma.” for “in rat plasma;”, “freeze/thaw stability.” for “freeze/thaw stability;”, “top stability.” for “top stability;”
as §2, with “in dog” for “in rat”, “least 12” for “least 12-24”, “are 1.4%” for “are 13.3%”, “and 2.8%,” for “and 4.6%,”, “concentration. The RE % values for the QC-Low and QC-High stability samples are 1.9% and −8.1%, respectively.” for “concentration.”

[4] = Extract autosampler stability (human plasma extract); details: for Extract autosampler stability, Mean concentration / Extract autosampler stability, RE % (mean vs nominal) / Extract autosampler stability, concentration found (replicate): at least 71 hours in autosampler, ambient
Procedure: as §3
After extraction, the QC samples were analyzed and left in the autosampler for at least 71 hours, then re-injected onto the LC-MS/MS. Triplicate QC-Low and QC-High samples were analyzed for the autosampler stability determination. The CV % values for the QC-Low and QC-High stability samples are 7.5% and 6.4%, respectively. To calculate the RE %, the measured mean concentration was compared to the nominal concentration. The RE % values for the QC-Low and QC-High stability samples are 1.9% and 4.6%, respectively.

CCC(C)(C)C(=O)[O-].[Na+] [Sodium 2,2-Dimethylbutyrate]
Stability after freeze/thaw cycles [1]: stable | Freeze/thaw cycle stability, Mean concentration ([1]; QC-High, nominal 40.0 μg/mL): 41.2 µg/mL | Freeze/thaw cycle stability, RE % (mean vs nominal) ([1]; QC-High, nominal 40.0 μg/mL): 3.1% | Freeze/thaw cycle stability, concentration found (replicate) ([1]; QC-High, nominal 40.0 μg/mL): 41.7 µg/mL and 39.2 µg/mL and 42.9 µg/mL | Freeze/thaw cycle stability, Mean concentration ([1]; QC-Low, nominal 0.60 μg/mL): 0.575 µg/mL | Freeze/thaw cycle stability, RE % (mean vs nominal) ([1]; QC-Low, nominal 0.60 μg/mL): −4.1% | Freeze/thaw cycle stability, concentration found (replicate) ([1]; QC-Low, nominal 0.60 μg/mL): 0.491 µg/mL and 0.595 µg/mL and 0.640 µg/mL | Stability after freeze/thaw cycles [2]: stable | Freeze/thaw cycle stability, Mean concentration ([2]; QC-High, nominal 40.0 μg/mL): 37.8 µg/mL | Freeze/thaw cycle stability, RE % (mean vs nominal) ([2]; QC-High, nominal 40.0 μg/mL): −5.5% | Freeze/thaw cycle stability, concentration found (replicate) ([2]; QC-High, nominal 40.0 μg/mL): 41.9 µg/mL and 36.8 µg/mL and 34.7 µg/mL | Freeze/thaw cycle stability, Mean concentration ([2]; QC-Low, nominal 0.60 μg/mL): 0.614 µg/mL | Freeze/thaw cycle stability, RE % (mean vs nominal) ([2]; QC-Low, nominal 0.60 μg/mL): 2.3% | Freeze/thaw cycle stability, concentration found (replicate) ([2]; QC-Low, nominal 0.60 μg/mL): 0.615 µg/mL and 0.593 µg/mL and 0.633 µg/mL | Stability after freeze/thaw cycles [3]: stable | Freeze/thaw cycle stability, Mean concentration ([3]; QC-High, nominal 40.0 μg/mL): 36.8 µg/mL | Freeze/thaw cycle stability, RE % (mean vs nominal) ([3]; QC-High, nominal 40.0 μg/mL): −8.1% | Freeze/thaw cycle stability, concentration found (replicate) ([3]; QC-High, nominal 40.0 μg/mL): 36.2 μg/mL (2×) and 37.9 μg/mL | Freeze/thaw cycle stability, Mean concentration ([3]; QC-Low, nominal 0.60 μg/mL): 0.612 µg/mL | Freeze/thaw cycle stability, RE % (mean vs nominal) ([3]; QC-Low, nominal 0.60 μg/mL): 1.9% | Freeze/thaw cycle stability, concentration found (replicate) ([3]; QC-Low, nominal 0.60 μg/mL): 0.603 µg/mL and 0.620 µg/mL and 0.612 µg/mL | Time stable in the extract in the autosampler ([4]; ambient storage in the autosampler): at least 71 hours | Extract autosampler stability, Mean concentration ([4]; QC-High, nominal 40.0 μg/mL): 41.8 µg/mL | Extract autosampler stability, RE % (mean vs nominal) ([4]; QC-High, nominal 40.0 μg/mL): 4.6% | Extract autosampler stability, concentration found (replicate) ([4]; QC-High, nominal 40.0 μg/mL): 42.9 µg/mL and 43.8 µg/mL and 38.8 µg/mL | Extract autosampler stability, Mean concentration ([4]; QC-Low, nominal 0.60 μg/mL): 0.611 µg/mL | Extract autosampler stability, RE % (mean vs nominal) ([4]; QC-Low, nominal 0.60 μg/mL): 1.9% | Extract autosampler stability, concentration found (replicate) ([4]; QC-Low, nominal 0.60 μg/mL): 0.663 µg/mL and 0.575 µg/mL and 0.596 µg/mL
